Test results reported in patent US6699833B1, “Pharmaceutical formulations for sustained drug delivery” (Praecis Pharmaceuticals, Inc., priority 1996, dated 2004).
Where a SMILES comes first, the peptide text is derived from it. [ ]: non-standard residue; d: D form. dPhe(4-Cl) = N[C@H](Cc1ccc(Cl)cc1)C(=O)O; d2Nal = N[C@H](Cc1ccc2ccccc2c1)C(=O)O; Lys(iPr) = CC(C)NCCCC[C@H](N)C(=O)O; NMeY = CN[C@@H](Cc1ccc(O)cc1)C(=O)O; d3Pal = N[C@H](Cc1cccnc1)C(=O)O

Conditions: rat, in vivo
Protocol: On day 30, the LHRH agonist Lupron™ (leuprolide) was injected into the rats. Plasma testosterone levels (in ng/ml; indicated by the open boxes in FIG. 2) were determined at various time points as a measure of the activity of the LHRH antagonist in the animal. Plasma levels of PPI-149 (in ng/ml) were also monitored in the animals (indicated by the closed boxes in FIG. 2).

day beyond which PPI-149 could not be detected in plasma: ~8 days
SMILES: CC(=O)N[C@H](Cc1ccc2ccccc2c1)C(=O)N[C@H](Cc1ccc(Cl)cc1)C(=O)N[C@H](Cc1cccnc1)C(=O)N[C@@H](CO)C(=O)N(C)[C@@H](Cc1ccc(O)cc1)C(=O)N[C@H](CC(N)=O)C(=O)N[C@@H](CC(C)C)C(=O)N[C@@H](CCCCNC(C)C)C(=O)N1CCC[C@H]1C(=O)N[C@H](C)C(N)=O [PPI-149, Ac-D-Nal^1,4-Cl-D-Phe^2, D-Pal^3, N-Me-Tyr^5, D-Asn^6, Lys(iPr)^8, D-Ala^10-LHRH] (Ac-[d2Nal][dPhe(4-Cl)][d3Pal]S[NMeY][dN]L[Lys(iPr)]P[dA]-NH2)
